The values that follow come from PMC10504751, “Chalcone/1,3,4-Oxadiazole/Benzimidazole hybrids as novel anti-proliferative agents inducing apoptosis and inhibiting EGFR & BRAFV^600E” (BMC Chemistry, 2023).

What is called viability is a read-out of living cells in per cent, often relative to untreated cells. High values mean less harm to the cells, low ones more harm to the cells. In general, melting point refers to the temperature, or range, at which the solid turns liquid. By IC50 is commonly meant the concentration that gives 50% inhibition.

Where “and” joins values, the source holds several entries; their conditions need not be identical. Identical values can stand only once.

Series [1] in a line: MTT cell viability assay in normal cells. It is filed as cell-based. Particulars: human, MCF-10A normal mammary epithelial cells. As to the method: To check the safety of prepared compounds and evaluate their selectivity towards tumor cells over normal ones, the toxicity of compounds 7a-x were evaluated by 3-(4,5-Dimethylthiazole-2-yl)-2,5-diphenyltetrazol (MTT) assay on the normal human mammary epithelial cell line (MCF-10 A). The human mammary epithelial cell lines were incubated for four days with a concentration of 50 µM of compounds 7a-x.
MTT assay was done to determine the effect of the synthesized compounds on the viability of mammary epithelial cells (MCF-10 A). Compounds 7a-x were incubated with MCF-10 A cells for 4 days at 50 µM concentration, and the viability of cells was determined. See Appendix A.
MTT assay was carried out to study the effect of compounds on mammary epithelial cells (MCF-10A).^7, ^8 The medium in which cells were propagated contained Dulbecco's modified Eagle's medium (DMEM)/ Ham's F-12 medium (1:1) supplemented with epidermal growth factor (20 ng/mL), hydrocortisone (500 ng/mL), insulin (10 μg/mL), 2 mM glutamine and 10% foetal calf serum. After every 2-3 days, the cells were passaged using trypsin ethylenediamine tetra acetic acid (EDTA). The cells were seeded at a density of 10^4 cells mL^-1 in flat-bottomed culture plates containing 96 wells each. After 24 h, medium was removed from the plates and the compounds in (in 0.1% DMSO) were added (in 200 μL medium to yield a final concentration of 0.1% v/v) to the wells of plates. A single compound was designated with four wells followed by incubation of plates for 96h at 37°C. After incubation, medium was removed completely from the plates followed by addition of MTT (0.4 mg/mL in medium) to each well and subsequent incubation of plates for 3h. MTT (along with the medium) was removed and DMSO (150μL) was added to each well of the culture plates, followed by vortexing and subsequent measurement of absorbance (at 540 nm) using microplate reader.
(In general: Tetrazolium dyes change colour on reduction, which living cells bring about.)

The test system of series [2] is MCF-7. Put plainly: Propidium iodide anti-proliferative assay. In kind it is cell-based. As to conditions: Homo sapiens, MCF7; 48 h incubation; read-out: IC50 ± SEM MCF-7. As to the method:
(§1) The propidium iodide (PI) tests^31, 32 were further used for assessment of the IC50 of all synthesized compounds and compared to Doxorubicin as a positive control against four cancer cell lines; pancreatic cancer cell line (Panc-1), epithelial line cancer cell (A-549), breast cancer cell line (MCF-7), and colon cancer cell line (HT-29).
(§2) Using the propidium iodide fluorescence assay with doxorubicin as the reference drug, IC50 of the 24 compounds 7a-x, was carried out according to a previously reported procedure^31, 32 against a panel of four human cancer cell lines; epithelial cancer cell line (A-549), breast cancer cell line (MCF-7), colon cancer cell line (HT-29) and pancreas cancer cell line (Panc-1). Compounds 7a-x were incubated with cancer cells for 2 days at different concentrations. See Appendix A.
(§3) To explore the antiproliferative potential of compounds propidium iodide fluorescence assay was performed using different cell lines (melanoma cancer cell line LOX-IMVI, pancreatic cancer cell line (Panc-1), epithelial line cancer cell (A-549), breast cancer cell line (MCF-7), and colon cancer cell line (HT-29). To calculate the total nuclear DNA, a fluorescent dye (propidium iodide, PI) is used which can attach to the DNA,^9,^10 thus offering a quick and precise technique. PI cannot pass through the cell membrane and its signal intensity can be considered as directly proportional to the quantity of cellular DNA. Cells whose cell membranes are damaged or have changed permeability are counted as dead ones. The assay was performed by seeding the cells of different cancer cell lines at a density of 3000-7500 cells/well (in 200µl medium) in culture plates followed by incubation for 24h at 37 °C in humidified 5% CO2/95% air atmospheric conditions. The medium was removed; the compounds were added to the plates at 10 µM concentrations (in 0.1% DMSO) in triplicates, followed by incubation for 48 h. DMSO (0.1%) was used as control. After incubation, medium was removed followed by the addition of PI (25 µl, 50µg/mL in water/medium) to each well of the plates. At -80 °C, the plates were allowed to freeze for 24 h, followed by thawing at 25 °C. A fluorometer (Polar-Star BMG Tech) was used to record the readings at excitation and emission wavelengths of 530 and 620 nm for each well. The percentage cytotoxicity of compounds was calculated using the following formula:
(§4) Where ATC= Absorbance of treated cells and AC= Absorbance of control. […]

Series [3] has as its system Panc-1. Kind of series: Propidium iodide anti-proliferative assay. In kind it is cell-based. Particulars: Homo sapiens, 48 h incubation, read-out: IC50 ± SEM Panc-1. As to the method: as §1, §2, §3, §4
Series [4] deals with HT-29. Put plainly: Propidium iodide anti-proliferative assay. In kind it is cell-based. Particulars: Homo sapiens, 48 h incubation, read-out: IC50 ± SEM HT-29. The method, then:
as §1, §2, §3, §4

Series [5] deals with A-549. Kind of series: Propidium iodide anti-proliferative assay. In kind it is cell-based. Particulars: Homo sapiens, A549; 48 h incubation; read-out: IC50 ± SEM A-549. As to the method:
as §1, §2, §3, §4

In series [6] the test system is Bcl-2 in MCF-7. Put plainly: Bcl-2 inhibition assay.
Experimental: All reagents were thoroughly mixed without foaming before use. The microwells were washed twice with approximately 300 µL Wash Buffer per well with the thorough aspiration of microwell contents between washes. Care was taken not to scratch the surface of the microwells. After the last wash, the wells were emptied and microwell strips were tapped on an absorbent pad or paper towel to remove excess Wash Buffer. The microwell strips were used immediately after washing or placed upside down on a wet absorbent paper for not longer than 15 min. Wells were not allowed to dry. A total of 100 µL of Sample Diluent was added in duplicate to all standard wells and the blank wells. Standard (1:2 dilution) in duplicate was prepared ranging from 32 to 0.5 ng/mL. A total of 100 µL of Sample Diluent, in duplicate, was added to the blank wells. A total of 80 µL of Sample Diluent, in duplicate, was added to the sample wells. A total of 20 µL of each sample, in duplicate, was added to the designated wells. A total of 50 µL of diluted biotin was added, conjugated to all wells, including the blank wells. It was covered with a plate cover and incubated at room temperature on a microplate shaker at 100 rpm for 2 h. The plate cover was removed and the wells were emptied. Microwell strips were washed times as described in Step 2. A total of 100 µL of diluted Streptavidin-HRP was added to all wells, including the blank wells. It was covered with a plate cover and incubated at room temperature on a microplate shaker at 100 rpm for 1 h. The plate cover was removed and the wells were emptied. Microwell strips were washed three times, as described in Step 2. A total of 100 µL of mixed TMB Substrate Solution was pipetted into all wells, including the blanks. The microwell strips were incubated at room temperature (18 ◦C to 25 ◦C) for about 15 min, on a rotator set at 100 rpm. Direct exposure to intense light was avoided. The point at which the substrate reaction is stopped was determined by the ELISA reader. Many ELISA readers record absorbance only up to 2.0 O.D. Therefore, the color development within individual microwells was watched by the person running the assay, and the substrate reaction was stopped before positive wells were no longer properly detectable. The enzyme reaction was stopped by quickly pipetting 100 µL of Stop Solution into each well, including the blank wells. It was important that the Stop Solution was spread quickly and uniformly throughout the microwells to inactivate the enzyme completely. Results were read immediately after the Stop Solution was added or within one hour if the microwell strips were stored at 2–8 ◦C in the dark. The absorbance of each microwell was read on a spectrophotometer using 450 nm as the primary wavelength.
Series [7] relates to Cytochrome C in MCF-7 human breast cancer cell line. Put plainly: Cytochrome C assay. In kind it is cell-based.
Series [8] has as its system BAX in MCF-7. Put plainly: BAX activation assay.
Experimental: All reagents were brought to room temperature for at least 30 min before opening (except the human BAX-α Standard). Human BAX-α Standard solution was not be left at room temperature for more than 10 min. Duplicates of all standards, controls, and samples were run. The Assay Layout Sheet was used to determine the number of wells to be used, and any remaining wells were put with the desiccant back into the pouch, and the ziplock was sealed. Unused wells were stored at 4 ◦C. A total of 100 µL of Assay Buffer was pipetted into the S0 (0 pg/mL standard) wells. A total of 100 µL of Standards #1 through #6 was pipetted into the appropriate wells. A total of 100 µL of the samples was pipetted into the appropriate wells. The plate was gently tapped to mix the contents. The plate was sealed and incubated at room temperature on a plate shaker for 1 h at ~500 rpm. The contents of the wells were emptied and washed by adding 400 µL of wash solution to every well. The wash was repeated four more times for a total of five washes. After the final wash, the wells were emptied or aspirated and firmly the plate on a lint-free paper towel was tapped to remove any remaining wash buffer. A total of 100 µL of yellow antibody was pipetted into each well, except the Blank. The plate was sealed and incubated at room temperature on a plate shaker for 1 h at ~500 rpm. The contents of the wells were emptied and washed by adding 400 µL of wash solution to every well. The wash was repeated four more times for a total of five washes. After the final wash, the wells were emptied or aspirated, and the plate was firmly tapped on a lint-free paper towel to remove any remaining wash buffer. A total of 100 µL of blue Conjugate was added to each well, except the Blank. The plate was sealed and incubated at room temperature on a plate shaker for 30 min at ~500 rpm. The contents of the wells were emptied and washed by adding 400 µL of wash solution to every well. The wash was repeated four more times for a total of five washes. After the final wash, the wells were emptied or aspirated and the plate was firmly tapped on a lint-free paper towel to remove any remaining wash buffer. A total of 100 µL of Substrate Solution was pipetted into each well. It was incubated for 30 min at room temperature on a plate shaker at ~500 rpm. A total of 100 µL Stop Solution was pipetted into to each well. The plate reader was blanked against the Blank wells, and the optical density was read at 450 nm. The average net optical density (OD) bound for each standard and sample was calculated by subtracting the average Blank OD from the average OD for each standard and sample. Using linear graph paper, the Average Net OD for each standard versus BAX concentration in each standard were plotted. A straight line was approximated through the points. The concentration of BAX in the unknowns could be determined by interpolation.
Series [9] concerns Caspase-3 in MCF-7 breast cancer cells. Kind of series: Caspase-3 assay.
Experimental: All reagents were allowed to reach room temperature before use. All liquid reagents were gently mixed before use. The number of 8-well strips needed for the assay was determined. These were inserted into the frame(s) for current use. A total of 100 µL of the Standard Diluent Buffer was added to the zero standard wells. Well(s) reserved for chromogen blank were left empty. A total of 100 µL of standards and controls or diluted samples was added to the appropriate microtiter wells. The sample dilution chosen was optimized for each experimental system. The side of the plate was gently tapped on to
mix. Wells were covered with a plate cover and incubated for 2 h at room temperature. The solution was thoroughly aspirated or decanted from the wells and the liquid was discarded; wells were washed four times. […] The side of the plate was gently tapped on to mix. The plate was covered with a plate cover and incubated for 1h at room temperature. The solution was thoroughly aspirated or decanted from wells and the liquid was discarded; wells were washed four times. A total of 100 µL Anti-Rabbit IgG HRP Working Solution was added to each well except the chromogen blank(s). The working dilution was prepared as described in Preparing IgG HRP. Wells were covered with the plate cover and incubated for 30 min at room temperature. The solution was thoroughly aspirated or decanted from the wells and the liquid was discarded. Wells were washed four times. A total of 100 µL of Stabilized Chromogen was added to each well. The liquid in the wells began to turn blue. It was incubated for 30 min at room temperature and in the dark. The incubation time for chromogen substrate was determined by the microtiter plate reader used. Many plate readers have the capacity to record a maximum optical density (O.D.) of 2.0. The O.D. values were monitored, and the substrate reaction was stopped before the O.D. of the positive wells exceeds the limits of the instrument. The O.D. values at 450 nm could only be read after the Stop Solution had been added to each well. A total of 100 µL of Stop Solution was added to each well. The side of the plate was gently tapped to mix. The solution in the wells changed from blue to yellow. The absorbance of each well was read at 450 nm, having blanked the plate reader against a chromogen blank composed of 100 µL each of Stabilized Chromogen and Stop Solution. The plate was read within 2 h after adding the Stop Solution. A curve fitting software was used to generate the standard curve.
The concentrations for unknown samples and controls from the standard curve were read. Value(s) obtained for sample(s) by the appropriate dilution factor were multiplied to correct for the dilution in step 3.
Series [10] deals with Caspase-9 in MCF-7 breast cancer cells. Put plainly: Caspase-9 assay. It is filed as cell-based, human.
Series [11] concerns Caspase-8 in MCF-7 breast cancer cells. Kind of series: Caspase-8 assay. In kind it is cell-based, human.
Series [12] has as its system Panc-1, A-549, MCF-7 and HT-29. Kind of series: Propidium iodide anti-proliferative assay, four cell lines together. It is filed as cell-based. Particulars: Homo sapiens; range over Panc-1, A-549, MCF-7, HT-29; read-out: IC50 range on the four tested cell lines. As to the method:
as §1, §2
as §3, with “The medium was removed; the compounds were added to the plates at 10 µM concentrations (in 0.1% DMSO) in triplicates, followed by incubation for 48 h. DMSO (0.1%) was used as control. After incubation, medium was removed followed by the addition of PI (25 µl, 50µg/mL in water/medium) to each well of the plates. At -80 °C, the plates were allowed to freeze for 24 h, followed by thawing at 25 °C.” left out
as §4

In turn, `COc1ccc(-c2nc3cc(-c4nnc(SCC(=O)Nc5ccc(C(=O)/C=C/c6cc(OC)c(OC)c(OC)c6)cc5)o4)ccc3[nH]2)cc1OC` [Compound 7t, 2-{5-[2-(3,4-Dimethoxyphenyl)-1 H-benzo[d]imidazol-5-yl]-1,3,4-oxadiazol-2-ylthio}-N-{4-[(E)-3-(3,4,5-trimethoxyphenyl)acryloyl]phenyl}acetamide] gave a melting point of 190 to 193 °C. This molecule yielded a viability at 96 h, 50 µM in [1] of 88%. In addition, in series [2], the IC50 came out at 10.1 ± 1 µM. In series [3], the IC50 amounted to 10.9 ± 1.2 µM. Besides, the IC50 in series [4] amounted to 10.8 ± 1.2 µM. For the same molecule, the IC50 in series [5] was 10.6 ± 1.1 µM.

As for `COc1ccc(/C=C/C(=O)c2ccc(NC(=O)CSc3nnc(-c4ccc5[nH]c(-c6cc(OC)c(OC)c(OC)c6)nc5c4)o3)cc2)cc1` [Compound 7w, 2-{5-[2-(3,4,5-Trimethoxyphenyl)-1 H-benzo[d]imidazol-5-yl]-1,3,4-oxadiazol-2-ylthio}-N-{4-[(E)-3-(4-methoxyphenyl)acryloyl]phenyl}acetamide], the melting point lay in the range of 200 to 204 °C. Further, in series [1], the viability at 96 h, 50 µM was 91%. In series [2], the IC50 stood at 10.2 ± 1.2 µM. Further, the IC50 in series [3] is 11.2 ± 1.2 µM. In addition, the IC50 in [4] was found to be 11.2 ± 1.3 µM. Also, the IC50 in series [5] worked out at 10.9 ± 1.1 µM.

For `COc1cc(/C=C/C(=O)c2ccc(NC(=O)CSc3nnc(-c4ccc5[nH]c(-c6ccc(Cl)cc6)nc5c4)o3)cc2)cc(OC)c1OC` [Compound 7j, 2-{5-[2-(4-Chlorophenyl)-1 H-benzo[d]imidazol-5-yl]-1,3,4-oxadiazol-2-ylthio}-N-{4-[(E)-3-(3,4,5-trimethoxyphenyl)acryloyl]phenyl}acetamide], the melting point is 223 to 225 °C. In addition, the viability at 96 h, 50 µM in series [1] amounted to 89%. Further, the IC50 in [2] was 9.4 ± 1.2 µM. Further, in series [3], the IC50 came out at 10.3 ± 1.2 µM. Moreover, the 50% inhibitory concentration (IC50) in series [4] was 10.7 ± 1.1 µM. Besides, the half-maximal inhibitory concentration (IC50) in series [5] stood at 9.95 ± 1.1 µM.

Consider `COc1cccc2c1C(=O)c1c(O)c3c(c(O)c1C2=O)C[C@@](O)(C(=O)CO)C[C@@H]3O[C@H]1C[C@H](N)[C@H](O)[C@H](C)O1` [Doxorubicin, reference compound], for which the “Bcl-2 Conc” value in series [6] (MCF-7) was 0.98 ng/mL and 0.985 ng/mL. Moreover, in [6] (MCF-7, vs untreated control), the “Bcl-2 Fold reduction” value is 5.1 fold. Further, in series [7] (MCF-7, vs untreated control), the “Cytochrome C Fold change” value is on record as 13.10 fold. For the same molecule, the “Cytochrome C Conc” value in [7] (MCF-7 breast cancer cells) was determined as 0.604 ng/mL. The “BAX Conc” value in series [8] (MCF-7) was 276 pg/mL and 276.500 pg/mL. Further, the “BAX Fold change” value in series [8] (MCF-7, vs untreated control) is recorded as 32.5 fold. Moreover, the “Caspase-3 Fold change” value in series [9] (MCF-7, vs untreated control) stood at 7.65 fold. The “Caspase-3 Conc” value in [9] (MCF-7 breast cancer cells) was 503.200 ± 4.20 pg/mL. Moreover, in series [10] (MCF-7, vs untreated control), the “Caspase-9 Fold change” value was 17.40 fold. Moreover, in [10] (MCF-7 breast cancer cells), the “Caspase-9 Conc” value was 16.200 ng/mL. The “Caspase-8 Fold change” value in series [11] (MCF-7, vs untreated control) was 10.00 fold. Besides, the “Caspase-8 Conc” value in [11] (MCF-7 breast cancer cells) came out at 1.750 ng/mL. Moreover, the IC50 in [12] was 0.9 to 1.41 µM; in [2], 0.9 ± 0.1 µM; in series [3], 1.41 ± 0.1 µM; in series [4] it was 1.01 ± 0.1 µM; in series [5] it was 1.21 ± 0.1 µM.

`COc1ccc(/C=C/C(=O)c2ccc(NC(=O)CSc3nnc(-c4ccc5[nH]c(-c6cc(OC)c(OC)c(OC)c6)nc5c4)o3)cc2)cc1OC` [Compound 7x, 2-{5-[2-(3,4,5-Trimethoxyphenyl)-1 H-benzo[d]imidazol-5-yl]-1,3,4-oxadiazol-2-ylthio}-N-{4-[(E)-3-(3,4-dimethoxyphenyl)acryloyl]phenyl}acetamide]: the melting point was 212 to 215 °C. Also, the viability at 96 h, 50 µM in [1] worked out at 85%. In series [2], the IC50 worked out at 10.8 ± 1.1 µM. Also, in series [3], the IC50 was found to be 11.8 ± 1.2 µM. In series [4], the IC50 was 12.5 ± 1.5 µM. In series [5], the IC50 worked out at 11.5 ± 1.2 µM.

For the molecule `COc1ccc(/C=C/C(=O)c2ccc(NC(=O)CSc3nnc(-c4ccc5[nH]c(-c6ccc(Cl)cc6)nc5c4)o3)cc2)cc1OC` [Compound 7i, 2-{5-[2-(4-Chlorophenyl)-1 H-benzo[d]imidazol-5-yl]-1,3,4-oxadiazol-2-ylthio}-N-{4-[(E)-3-(3,4-dimethoxyphenyl)acryloyl]phenyl}acetamide], the melting point was 208 to 210 °C. Further, in [1], the viability at 96 h, 50 µM was 84%. Also, in [2], the concentration for half-maximal inhibition (IC50) is 9.2 ± 1 µM. The IC50 in series [3] came to 10.2 ± 1.2 µM. Moreover, in [4], the IC50 came to 10.2 ± 1.3 µM. The IC50 in [5] was determined as 9.7 ± 1.1 µM.

In turn, `COc1ccc(/C=C/C(=O)c2ccc(NC(=O)CSc3nnc(-c4ccc5[nH]c(-c6ccc(OC)c(OC)c6)nc5c4)o3)cc2)cc1OC` [Compound 7s, 2-{5-[2-(3,4-Dimethoxyphenyl)-1 H-benzo[d]imidazol-5-yl]-1,3,4-oxadiazol-2-ylthio}-N-{4-[(E)-3-(3,4-dimethoxyphenyl)acryloyl]phenyl}acetamide] displayed a melting point of 190 to 193 °C. The molecule further returned a viability at 96 h, 50 µM in [1] of 87%. For the same molecule, the IC50 in [2] is 3.15 ± 0.5 µM. Besides, in [3], the IC50 is 4.3 ± 0.6 µM. The IC50 in series [4] was 4.55 ± 0.6 µM. Moreover, the IC50 in series [5] worked out at 3.8 ± 0.6 µM.
